Earlier results on one compound are cited in patent publication US12599677B2, “Targeted PH sensitive liposomes” (Northwestern University, priority 2020, dated 2026).

Consider `C=C1CC[C@@H]2[C@](C)(CO)[C@H](O)CC[C@@]2(C)[C@@H]1C/C=C1/C(=O)OC[C@H]1O` [andrographolide], for which the solubility in water entry is “low solubility in water”.
